Test results taken from ChEMBL document CHEMBL4373665, “Discovery of new non-acidic lonazolac analogues with COX-2 selectivity as potent anti-inflammatory agents” (Medchemcomm, 2019).

Legend:
[1] = test system: Rattus norvegicus; test: Anti-inflammatory activity in albino rat model of carrageenan-induced paw edema assessed as paw edema thickness at 100 mg/kg, po administered as single dose prior to carrageenan challenge measured after 8 hrs; assay type: functional
[2] = target: Prostaglandin G/H synthase 1 (Homo sapiens, UniProt P23219); test: Inhibition of human recombinant COX1 assessed as decrease in prostaglandin production using arachidonic acid as substrate pretreated for 15 mins followed by substrate addition and measured after 2 mins by enzyme immunoassay; assay type: single protein
Chain of Prostaglandin G/H synthase 1 (P23219 whole entry): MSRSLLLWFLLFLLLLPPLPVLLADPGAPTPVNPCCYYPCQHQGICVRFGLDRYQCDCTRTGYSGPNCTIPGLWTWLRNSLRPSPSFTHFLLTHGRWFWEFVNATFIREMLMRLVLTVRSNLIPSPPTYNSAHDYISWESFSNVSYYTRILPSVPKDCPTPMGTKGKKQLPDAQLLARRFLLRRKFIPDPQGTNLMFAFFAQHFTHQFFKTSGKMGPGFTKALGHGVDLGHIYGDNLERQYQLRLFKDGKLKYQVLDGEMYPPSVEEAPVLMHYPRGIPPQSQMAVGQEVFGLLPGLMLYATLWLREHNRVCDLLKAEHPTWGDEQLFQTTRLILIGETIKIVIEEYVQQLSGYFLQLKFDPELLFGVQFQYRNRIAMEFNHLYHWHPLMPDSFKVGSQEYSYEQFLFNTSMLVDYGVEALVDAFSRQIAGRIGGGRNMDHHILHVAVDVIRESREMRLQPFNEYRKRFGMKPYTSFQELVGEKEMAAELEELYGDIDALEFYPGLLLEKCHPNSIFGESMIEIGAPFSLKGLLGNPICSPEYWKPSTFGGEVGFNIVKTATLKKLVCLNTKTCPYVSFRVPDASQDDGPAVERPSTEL

[3] = species on record: Homo sapiens; test: Selectivity index, ratio of IC50 for human recombinant COX1 to IC50 for human recombinant COX2 using arachidonic acid as substrate
[4] = test system: Rattus norvegicus; test: Anti-inflammatory activity in albino rat model of carrageenan-induced paw edema assessed as inhibition of carrageenan-induced paw edema at 100 mg/kg, po administered as single dose prior to carrageenan challenge measured after 1 hr relative to control; assay type: functional
[5] = test system: Rattus norvegicus; test: Anti-inflammatory activity in albino rat model of carrageenan-induced paw edema assessed as inhibition of carrageenan-induced paw edema at 100 mg/kg, po administered as single dose prior to carrageenan challenge measured after 4 hrs relative to control; assay type: functional
[6] = target: T1, Prostaglandin G/H synthase 2 (Homo sapiens, UniProt P35354); test: Inhibition of human recombinant COX2 assessed as decrease in prostaglandin production using arachidonic acid as substrate pretreated for 15 mins followed by substrate addition and measured after 2 mins by enzyme immunoassay
T1 sequence (P35354 whole entry): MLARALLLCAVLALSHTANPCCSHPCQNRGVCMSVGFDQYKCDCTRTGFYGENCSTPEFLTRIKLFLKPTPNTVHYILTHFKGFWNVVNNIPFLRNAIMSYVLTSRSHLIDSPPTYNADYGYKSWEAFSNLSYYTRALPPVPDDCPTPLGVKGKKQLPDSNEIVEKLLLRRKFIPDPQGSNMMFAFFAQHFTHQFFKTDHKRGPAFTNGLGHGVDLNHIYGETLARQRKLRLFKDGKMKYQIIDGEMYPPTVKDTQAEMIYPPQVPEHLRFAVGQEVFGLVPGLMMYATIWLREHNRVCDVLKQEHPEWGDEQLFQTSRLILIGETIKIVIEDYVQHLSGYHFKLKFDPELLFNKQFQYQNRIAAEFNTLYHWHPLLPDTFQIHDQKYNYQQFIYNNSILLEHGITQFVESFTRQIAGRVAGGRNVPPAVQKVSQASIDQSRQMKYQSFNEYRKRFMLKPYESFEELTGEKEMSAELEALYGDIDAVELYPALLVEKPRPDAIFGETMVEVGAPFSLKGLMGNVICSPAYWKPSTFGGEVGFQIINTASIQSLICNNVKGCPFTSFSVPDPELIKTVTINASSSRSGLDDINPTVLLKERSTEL

[7] = test system: Rattus norvegicus; test: Anti-inflammatory activity in albino rat model of carrageenan-induced paw edema assessed as paw edema thickness at 100 mg/kg, po administered as single dose prior to carrageenan challenge measured after 12 hrs; assay type: functional
[8] = test system: Rattus norvegicus; test: Anti-inflammatory activity in albino rat model of carrageenan-induced paw edema assessed as inhibition of carrageenan-induced paw edema at 100 mg/kg, po administered as single dose prior to carrageenan challenge measured after 3 hrs relative to control; assay type: functional
[9] = test system: Rattus norvegicus; test: Anti-inflammatory activity in albino rat model of carrageenan-induced paw edema assessed as inhibition of carrageenan-induced paw edema at 100 mg/kg, po administered as single dose prior to carrageenan challenge measured after 8 hrs relative to control; assay type: functional

Structure (SMILES)	Activity [1]	IC50 [2]	Ratio IC50 [3]	inhibition in vivo at 100 mg/kg [4]	inhibition in vivo at 100 mg/kg [5]	IC50 [6]	Activity [7]	inhibition in vivo at 100 mg/kg [8]	inhibition in vivo at 100 mg/kg [9]
NC(=S)n1nc(-c2ccccc2)cc1-c1cn(-c2ccccc2)nc1-c1ccc(OCc2ccccc2)cc1	2.2 mm	5.2 µM	1	3.97%	2.15%	5.2 µM	1.8 mm	7.29%	–
S=c1nc(-c2ccccc2)cc(-c2cn(-c3ccccc3)nc2-c2ccc(OCc3ccccc3)cc2)[nH]1	2.19 mm	0.31 µM	0.31	48.5%	14.6%	1 µM	1.88 mm	33.8%	–
CC(=O)n1nc(-c2ccc(Cl)cc2)cc1-c1cn(-c2ccccc2)nc1-c1ccc(OCc2ccccc2)cc1	2.17 mm	2.72 µM	0.975	69.8%	25.8%	2.79 µM	1.82 mm	49.7%	–
NC(=S)n1nc(-c2ccc(Cl)cc2)cc1-c1cn(-c2ccccc2)nc1-c1ccc(OCc2ccccc2)cc1	–	6.07 µM	1.31	47.5%	24.5%	4.69 µM	1.89 mm	24.6%	5.9%
Nc1nc(-c2ccc(Cl)cc2)cc(-c2cn(-c3ccccc3)nc2-c2ccc(OCc3ccccc3)cc2)n1	2.17 mm	0.6 µM	0.15	50.8%	20.4%	3.99 µM	1.8 mm	30.4%	–
N#CC1=C(N)OC(c2ccc(Cl)cc2)=CC1c1cn(-c2ccccc2)nc1-c1ccc(OCc2ccccc2)cc1 (stereo unspecified)	2.31 mm	9.68 µM	0.831	28.8%	18.2%	11.6 µM	1.85 mm	38.2%	–
c1ccc(COc2ccc(-c3nn(-c4ccccc4)cc3-c3cc(-c4ccccc4)no3)cc2)cc1	–	9.57 µM	4.54	73.8%	28.4%	2.11 µM	1.83 mm	42.5%	6.9%
